US5064852A, “Indolinone derivatives” (Pfizer Inc., priority 1990, dated 1991)

Experiments:
[1] = biological target: T1, aldose reductase (Homo sapiens, UniProt P15121); test: inhibition of aldose reductase enzyme activity (procedure of S. Hayman et al. as modified by K. Sestanj et al.); format: biochemical; details: for inhibition at 10 µM: 10^-5 M, partially purified aldose reductase from human placenta; for aldose reductase inhibitor potency (in words): no concentration given
T1 construct: partially purified aldose reductase enzyme obtained from human placenta; from tissue; host or cells: human placenta
Experimental: (§1) The activity of the compounds of the present invention, as agents for the control of chronic diabetic complications, is determined by their ability to successfully pass one or more of the following standard biological or pharmacological tests, viz., (1) measuring their ability to inhibit the enzyme activity of isolated aldose reductase; (2) measuring their ability to reduce or inhibit sorbitol accumulation in the sciatic nerve of acutely streptozotocinized (i.e., diabetic) rats; (3) measuring their ability to reverse already-elevated sorbitol levels in the sciatic nerve and lens of chronic streptozotocin-induced diabetic rats; (4) measuring their ability to prevent or inhibit galactitol formation in the lens of acutely galactosemic rats, and (5) measuring their ability to delay cataract formation and reduce the severity of lens opacities in chronic galactosemic rats.
The following oxindole-1-alkanoic acid final products of Examples 1-12, respectively, were tested at a concentration level of 10^-5 M for their ability to reduce or inhibit aldose reductase enzyme activity via the procedure of S. Hayman et al., as described in the Journal of Biological Chemistry, Vol. 240, p. 877 (1965) and as modified by K. Sestanj et al. in U.S. Pat. No. 3,821,383. In every case, the substrate employed was partially purified aldose reductase enzyme obtained from human placenta.

[2] = tested on: sorbitol levels in diabetic rats; test: inhibition of sorbitol formation in diabetic rats, oral route; format: in vivo, rat; details: dose levels ranging from 0.75 mg./kg. to 20 mg./kg.
Description: As previously indicated, the 3-substituted 2-oxo-indoline-1-alkanoic acid compounds of this invention are readily adapted to therapeutic use as aldose reductase inhibitors for the control of chronic diabetic complications, in view of their ability to reduce lens sorbitol levels in diabetic subjects to a statistically significant degree. […] Furthermore, the herein described compounds of this invention can be administered by either the oral or parenteral routes of administration. […]
as §1

Row | SMILES | inhibition at 10 µM [1] [%] | aldose reductase inhibitor potency (in words) [1] | inhibition of the formation of sorbitol levels in diabetic rats (in words) [2]
1 | COc1ccc2c(c1)N(CC(=O)O)C(=O)C2Cc1ccc(Cl)c(Cl)c1 (stereo not drawn) [Example 5, 3-(3,4-dichlorobenzyl)-6-methoxy-2-oxo-indoline-1-acetic acid] | 81 | highly potent | –
2 | O=C(O)CN1C(=O)C2(Cc3ccccc3C2)c2ccccc21 [Example 8, 1,2-dihydro-spiro-inden[2,3']indolin-2'-one-1'-acetic acid] | 66 | – | –
3 | CC(C(=O)O)N1C(=O)C(Cc2ccc(Cl)c(Cl)c2)c2ccccc21 (stereo not drawn) [Example 6, 3-(3,4-dichlorobenzyl)-2-oxo-indoline-1-(α-methyl)acetic acid] | 25 | – | –
4 | O=C(O)CN1C(=O)C(Cc2ccc(Cl)c(Cl)c2)c2cc(Cl)ccc21 (stereo not drawn) [Example 2, 5-chloro-3-(3,4-dichlorobenzyl)-2-oxo-indoline-1-acetic acid] | 88 | highly potent | –
5 | O=C(O)CN1C(=O)C(Cc2ccc(Cl)c(Cl)c2)c2ccccc21 (stereo not drawn) [Example 1, 3-(3,4-dichlorobenzyl)-2-oxo-indoline-1-acetic acid] | 92 | highly potent | significantly high degree
6 | CC(c1ccc(Cl)c(Cl)c1)C1C(=O)N(CC(=O)O)c2ccccc21 (stereo not drawn) [Example 7, 3-(3,4-dichloro-α-methylbenzyl)-2-oxo-indoline-1-acetic acid] | 94 | highly potent | –
7 | COc1cc2c(cc1OC)N(CC(=O)O)C(=O)C2Cc1ccc(Cl)c(Cl)c1 (stereo not drawn) [Example 4, 3-(3,4-dichlorobenzyl)-5,6-dimethoxy-2-oxo-indoline-1-acetic acid] | 55 | – | –
8 | O=C(O)CN1C(=O)C(Cc2ccc(Cl)c(Cl)c2)c2ccc(F)cc21 (stereo not drawn) [Example 3, 3-(3,4-dichlorobenzyl)-6-fluoro-2-oxo-indoline-1-acetic acid] | 68 | – | –

Second part, led by results:

Row | inhibition at 10 µM [1] [%] | aldose reductase inhibitor potency (in words) [1] | SMILES | inhibition of the formation of sorbitol levels in diabetic rats (in words) [2]
9 | 71 | – | O=C(O)CN1C(=O)C2(Cc3ccc(Cl)cc3C2)c2ccccc21 (stereo not drawn) [Example 9, 5(6)-chloro-1,2-dihydro-spiro-inden[2,3']indolin-2'-one-1'-acetic acid] | –
10 | 72 | – | CC(c1ccc(Cl)c(Cl)c1)C1(C)C(=O)N(CC(=O)O)c2ccccc21 (stereo not drawn) [Example 11, 3-(3,4-dichloro-α-methylbenzyl)-3-methyl-2-oxo-indoline-1-acetic acid] | –
11 | 79 | highly potent | O=C(O)CN1C(=O)C(Cc2ccc(Cl)c(Cl)c2)c2ccc(O)cc21 (stereo not drawn) [Example 12, 3-(3,4-dichlorobenzyl)-6-hydroxy-2-oxo-indoline-1-acetic acid] | –
12 | 20 | – | O=C(O)CN1C(=O)C(Cc2ccc(Cl)c(Cl)c2)(Cc2ccc(Cl)c(Cl)c2)c2ccccc21 [Example 10, 3,3-di(3,4-dichlorobenzyl)-2-oxo-indoline-1-acetic acid] | –
